Literature values as cited in patent publication US20220378803A1, “INJECTABLE COMPOSITIONS OF URSODEOXYCHOLIC ACID” (SHILPA MEDICARE LIMITED, priority 2019, published 2022).

solubility in water: practically insoluble
Structure (SMILES): C[C@H](CCC(=O)O)[C@H]1CC[C@H]2[C@@H]3[C@@H](O)C[C@@H]4C[C@H](O)CC[C@]4(C)[C@H]3CC[C@]12C [UDCA, ursodeoxycholic acid]
